Results: patent US20120244208A1, “COSMETIC SKIN CARE METHODS AND COMPOSITIONS” (priority 2009, published 2012)

Columns and labels:
[1] = system: fibroblasts; conditions: concentration of 1 microM; cited from earlier work
[2] = system: Normal human dermal fibroblasts (NHDFs) seeded on collagen type 1 gels; test: Fibroblast-seeded collagen gel contraction; type: cell-based; conditions: for % of original size (mean): 0.1 mg/ml lactoferrin, 0.1 mg/ml ICI 118 551, 1.0 mg/ml Isoproterenol, 3.5×10^4 cells per well
Procedure: Normal human dermal fibroblasts (NHDFs) were obtained by tissue donation following circumcision following patient informed consent. The tissue was rinsed in Phosphate Buffered Saline (PBS) and Pen/Strep and Amphotericin B (Pen/strep) at 10 ug/ml. The tissue was then minced to 1 mm2 sections and suspended in Trypsin-EDTA 1:250 at room temperature (RT) for 1 hr. The tissue was then washed twice by centrifugation at 2500 g for 3min in serum supplemented DMEM/F12. A single cell suspension was created using mechanical disaggregation. The cells were counted using a haemocytometer and cultured at 1×10^6 cells per T75 tissue culture flask in DMEM/F12 containing 10% Fetal Bovine Serum (FBS) and 10 ug/ml Pen/strep. Incubators were kept at 37° C. and 5% CO2. Medium was changed every 3-4 days and cells were used from the 4th passage in vitro.
Collagen gels were formed. A solution of collagen, consisting of 2 mg/ml type 1 bovine collagen from bovine Achilles tendon in 0.5M acetic acid, was made. This made up 80% of the gel. Another 10% was made up of 10×PBS and the remaining volume was made up of FBS. The pH of the entire solution was adjusted to 7.4 using NaOH. 400 μl of the solution was placed into each well of a 24 well plate. The gels were set at 37° C. for 1 hr. After ensuring that the gels were set properly, they were detached from the sides of the wells and exposed to 1 ml fully supplemented DMEM/F12 overnight to acclimatize. The complete gels were seeded with 3.5×10^4 cells per well and the test compounds were added at this point. The test compound were added as follows: 0.1 mg/ml lactoferrin, 0.1 mg/ml ICI 118 551, 1.0 mg/ml Isoproterenol. A cell only and no cell control were also incuded.
Photographs were taken from the same distance at 0, 3, 6, 12 and 24 hrs of exposure using a Canon Powershot A640 10MP camera. The photos were transferred to CorelDRAW X3 and the inside diameter of the well as well as the outer edge of the gel were measured using the circle tool. […] These two diameters were then converted to a percentage of the well diameter by the formula geloutside/wellinside×100=gelrelative. This value was then worked out the same way for each gel at every time period. The time period Ohrs taken to be 100% of gel size and each time period after that was compared to it as a relative percentage. The standard deviation was calculated based on the original relative percentage to the well.

[3] = system: NHDFs; test: Viability monitored visually for 6 days; type: cell-based, human
Procedure: Cytotoxicity was measured using the MTT assay on NHDFs. Human dermal cells were used as it approximates the intended use. No cytotoxicity was found. […] All other cells maintained their viability over the six day period.

[4] = system: Normal human dermal fibroblasts (NHDFs) seeded on collagen type 1 gels; test: Fibroblast-seeded collagen gel contraction; type: cell-based
[5] = 0 hrs (taken to be 100% of gel size)

| Molecule | collagen gel contraction by fibroblasts relative to control [1] | % of original size (mean) [2, 5] [%] | % of original size (mean) ([2]; 3 hrs) [%] | % of original size (mean) ([2]; 6 hrs) [%] | % of original size (mean) ([2]; 12 hrs) [%] | % of original size (mean) ([2]; 24 hrs) [%] | viability monitored visually [3] | rate of gel contraction compared with Lactoferrin and cells only controls ([2]; over 24 hrs) | ideal concentration for gel contraction ([4]; dose response 0.01 mg/ml to 0.2 mg/ml, gel containing 3.5×10^4 cells) [mg/mL] | activity at lower concentrations (gel contraction) ([4]; dose response from 0.01 mg/ml, concentrations lower than 0.1 mg/ml) | effect of higher concentrations on rate of contraction ([4]; dose response up to 0.2 mg/ml, concentrations higher than 0.1 mg/ml) | return of gels to original dimensions ([4]; monitored for a further 3 days) |
| --- | --- | --- | --- | --- | --- | --- | --- | --- | --- | --- | --- | --- |
| YTRVVWXA: peptide with the amino acid sequence YTRVVWXA (a fragment from Lactoferrin) | about three times control | – | – | – | – | – | – | – | – | – | – | – |
| CC(C)NCC(O)c1ccc(O)c(O)c1 (centres unmarked) [Isoproterenol] | – | 100 | 100.8622 | 79.6766 | 82.7588 | 83.79 | started to lose viability | – | – | – | – | – |
| Cc1ccc(OCC(O)C(C)NC(C)C)c2c1CCC2 (racemic) [ICI 118 551, erythro-dl-1-(7-methylindan-4-yloxy)-3-isopropylaminobutan-2-ol] | – | 100 | 66.04 | 53.8 | 51.33 | 51.86 | – | contract the gels at a higher rate | 0.1 | not be significantly active | did not seem to increase the rate of contraction significantly | did not return to their original dimensions |
